Experimental findings from patent US9802921B2, “Fluoromethyl-substituted pyrrole carboxamides iv” (Grünenthal GmbH, priority 2013, dated 2017) are described below.

The test addresses T1, Human CaV2.2 channels (Homo sapiens, UniProt Q00975).
T1 construct: expressed in transfected cells
Kind of test: Fluorescent assay for CaV2.2 channels using potassium depolarization to induce channel opening (FLIPR, Fluo 4). Format: cell-based. Particulars: read-out: Activity Category: %-Inhib (CaV2.2) @3 μM @30 mM KCl; 3 μM test compound; 30 mM KCl as printed; HEK293 cells stably expressing human CaV2.2. An excerpt:
In the process, the Ca^2+ influx is quantified in the FLIPR assay with the aid of a Ca^2+-sensitive dye (type Fluo-4, Molecular Probes Europe BV, Leiden, the Netherlands) in a fluorescent imaging plate reader (FLIPR 3, Molecular Devices, Sunnyvale, USA), as described hereinafter.
Human CaV2.2 channels were stably expressed in HEK293 cells together with alpha2-delta and beta subunits of voltage gated calcium channels. In addition, an inwardly rectifying potassium channel (Kir2.3) was stably expressed in these cells to augment control of the cell membrane potential by the concentration of extracellular potassium ions. Raise of the extracellular potassium concentration leads to depolarization of the membrane potential and thus regulates the voltage dependent state of CaV2.2 channels. For preparation, cells were seeded in black poly-D-lysine coated 96-well plates (Becton Dickinson, Biocoat 4640) in 100 μL medium [500 mL DMEM/F-12 plus Glutamax (Invitrogen 31331-093) plus 5.5 mL MEM NEAA 100× (Invitrogen 11140-035) plus 50 mL FBS decomplemented (Invitrogen 10270-106) plus 200 μg/mL Geneticin (Invitrogen 10131-027) plus 50 μg/mL Hygromycin B (Invitrogen 10687-010) plus 2 μg/mL Blasticidin (anti-bl5b Invivo-Gen) plus 0.2 μg/mL Puromycin (A 11138-03)] at a cell density of 30.000 cells per well. Plates were incubated at 37° C. (5% CO2) for 20 to 23 h. On the day of experiment medium was discarded and cells were loaded with Fluo 4 by addition of 100 μL of basic assay buffer (10 mM HEPES, 1 mM KCl, 149 mM NaCl, 0.8 mM CaCl2, 1.7 mM MgCl2, 10 mM Glucose, 0.1% BSA. pH 7.4) containing 2 μM Fluo 4 (Molecular Probes; F-14201), 0.01% pluronic acid (Molecular Probes; P-6866) and 2.5 mM probenecid (Molecular Probes; P36400). Cells were incubated in the dark at 25° C. for 60 min. Then dye containing buffer was discarded and 100 μL basic (1 mM KCl) or alternative (30 mM KCl) assay buffer was added. The alternative assay buffer contained altered concentrations of KCl (30 mM) and NaCl (120 mM) and was used in order to promote the inactivated channel state. After that 25 μL of basic or alternative assay buffer with or without test compound were added and cells were incubated again in the dark at 25° C. for 15 min. Fluorescence intensity was measured on a FLIPR 3 instrument (Molecular Devices Corp., Sunnyvale, Calif.) with excitation at 480 nm and emission at 535 nm. After continuously reading fluorescence for 30 sec, 50 μL of basic assay buffer containing 210 mM KCl (NaCl omitted) were added for depolarization. Peak fluorescent signal intensity was determined and the amplitude of the peak signal, normalized to base line, was used to measure channel inhibition by test compounds.

T1 sequence (Q00975 whole entry): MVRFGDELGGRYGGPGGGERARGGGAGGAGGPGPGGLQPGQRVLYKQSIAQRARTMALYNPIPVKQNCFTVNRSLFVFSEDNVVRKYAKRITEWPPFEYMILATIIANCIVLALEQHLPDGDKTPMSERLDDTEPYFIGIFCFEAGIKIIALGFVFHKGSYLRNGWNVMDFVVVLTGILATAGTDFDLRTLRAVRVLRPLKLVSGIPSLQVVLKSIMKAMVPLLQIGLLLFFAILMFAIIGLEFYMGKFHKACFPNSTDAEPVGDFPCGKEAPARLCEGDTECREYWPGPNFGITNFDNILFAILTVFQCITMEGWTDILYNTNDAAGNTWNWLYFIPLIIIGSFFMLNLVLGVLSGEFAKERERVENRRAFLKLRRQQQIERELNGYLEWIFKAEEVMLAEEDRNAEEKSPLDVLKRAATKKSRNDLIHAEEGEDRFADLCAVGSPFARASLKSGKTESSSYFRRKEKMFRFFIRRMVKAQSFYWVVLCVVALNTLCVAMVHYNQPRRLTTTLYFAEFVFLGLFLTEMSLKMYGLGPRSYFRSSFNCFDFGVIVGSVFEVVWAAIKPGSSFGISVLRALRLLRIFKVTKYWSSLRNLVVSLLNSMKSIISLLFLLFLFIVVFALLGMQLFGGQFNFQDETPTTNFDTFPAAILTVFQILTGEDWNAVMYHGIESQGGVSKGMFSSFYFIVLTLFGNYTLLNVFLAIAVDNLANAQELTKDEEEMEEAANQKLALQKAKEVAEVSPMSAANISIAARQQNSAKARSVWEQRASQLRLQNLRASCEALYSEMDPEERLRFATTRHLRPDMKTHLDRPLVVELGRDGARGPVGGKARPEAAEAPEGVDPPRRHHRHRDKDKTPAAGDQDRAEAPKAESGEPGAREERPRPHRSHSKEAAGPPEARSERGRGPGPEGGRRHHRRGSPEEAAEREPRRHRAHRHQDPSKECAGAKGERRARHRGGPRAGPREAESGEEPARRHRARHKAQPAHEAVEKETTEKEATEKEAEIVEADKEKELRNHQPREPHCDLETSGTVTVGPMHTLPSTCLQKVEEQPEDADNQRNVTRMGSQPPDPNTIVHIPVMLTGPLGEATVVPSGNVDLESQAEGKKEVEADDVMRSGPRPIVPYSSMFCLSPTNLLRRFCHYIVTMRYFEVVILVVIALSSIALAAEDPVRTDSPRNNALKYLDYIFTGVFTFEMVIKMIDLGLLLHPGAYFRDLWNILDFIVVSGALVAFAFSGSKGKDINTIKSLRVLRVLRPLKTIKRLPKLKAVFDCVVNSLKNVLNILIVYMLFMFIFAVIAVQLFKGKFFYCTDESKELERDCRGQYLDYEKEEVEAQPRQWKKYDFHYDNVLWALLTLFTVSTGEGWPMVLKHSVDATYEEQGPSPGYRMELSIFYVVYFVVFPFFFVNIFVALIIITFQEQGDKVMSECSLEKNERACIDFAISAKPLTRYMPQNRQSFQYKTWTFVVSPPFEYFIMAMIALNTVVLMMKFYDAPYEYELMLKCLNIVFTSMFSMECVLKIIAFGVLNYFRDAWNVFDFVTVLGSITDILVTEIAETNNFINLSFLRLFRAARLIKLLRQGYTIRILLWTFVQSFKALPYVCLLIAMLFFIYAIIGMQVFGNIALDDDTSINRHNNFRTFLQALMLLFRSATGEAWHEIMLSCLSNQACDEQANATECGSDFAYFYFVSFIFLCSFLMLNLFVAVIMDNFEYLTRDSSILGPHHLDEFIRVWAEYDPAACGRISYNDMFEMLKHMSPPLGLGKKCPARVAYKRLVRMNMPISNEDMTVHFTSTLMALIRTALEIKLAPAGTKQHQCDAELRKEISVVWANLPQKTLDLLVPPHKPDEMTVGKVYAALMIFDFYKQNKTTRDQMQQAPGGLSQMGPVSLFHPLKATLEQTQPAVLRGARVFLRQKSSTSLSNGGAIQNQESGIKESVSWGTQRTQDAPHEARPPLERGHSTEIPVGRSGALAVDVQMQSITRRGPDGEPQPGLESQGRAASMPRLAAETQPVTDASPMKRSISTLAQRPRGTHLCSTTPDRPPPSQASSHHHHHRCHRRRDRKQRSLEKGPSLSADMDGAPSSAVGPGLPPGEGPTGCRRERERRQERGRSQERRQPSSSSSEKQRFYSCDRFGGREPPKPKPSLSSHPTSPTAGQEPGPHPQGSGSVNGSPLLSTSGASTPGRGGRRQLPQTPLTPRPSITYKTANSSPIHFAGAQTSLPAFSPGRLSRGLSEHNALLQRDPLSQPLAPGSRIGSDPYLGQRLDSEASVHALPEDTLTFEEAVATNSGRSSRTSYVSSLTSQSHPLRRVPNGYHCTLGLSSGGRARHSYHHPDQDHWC
T1 sequence (P54289 25-1103, further chain): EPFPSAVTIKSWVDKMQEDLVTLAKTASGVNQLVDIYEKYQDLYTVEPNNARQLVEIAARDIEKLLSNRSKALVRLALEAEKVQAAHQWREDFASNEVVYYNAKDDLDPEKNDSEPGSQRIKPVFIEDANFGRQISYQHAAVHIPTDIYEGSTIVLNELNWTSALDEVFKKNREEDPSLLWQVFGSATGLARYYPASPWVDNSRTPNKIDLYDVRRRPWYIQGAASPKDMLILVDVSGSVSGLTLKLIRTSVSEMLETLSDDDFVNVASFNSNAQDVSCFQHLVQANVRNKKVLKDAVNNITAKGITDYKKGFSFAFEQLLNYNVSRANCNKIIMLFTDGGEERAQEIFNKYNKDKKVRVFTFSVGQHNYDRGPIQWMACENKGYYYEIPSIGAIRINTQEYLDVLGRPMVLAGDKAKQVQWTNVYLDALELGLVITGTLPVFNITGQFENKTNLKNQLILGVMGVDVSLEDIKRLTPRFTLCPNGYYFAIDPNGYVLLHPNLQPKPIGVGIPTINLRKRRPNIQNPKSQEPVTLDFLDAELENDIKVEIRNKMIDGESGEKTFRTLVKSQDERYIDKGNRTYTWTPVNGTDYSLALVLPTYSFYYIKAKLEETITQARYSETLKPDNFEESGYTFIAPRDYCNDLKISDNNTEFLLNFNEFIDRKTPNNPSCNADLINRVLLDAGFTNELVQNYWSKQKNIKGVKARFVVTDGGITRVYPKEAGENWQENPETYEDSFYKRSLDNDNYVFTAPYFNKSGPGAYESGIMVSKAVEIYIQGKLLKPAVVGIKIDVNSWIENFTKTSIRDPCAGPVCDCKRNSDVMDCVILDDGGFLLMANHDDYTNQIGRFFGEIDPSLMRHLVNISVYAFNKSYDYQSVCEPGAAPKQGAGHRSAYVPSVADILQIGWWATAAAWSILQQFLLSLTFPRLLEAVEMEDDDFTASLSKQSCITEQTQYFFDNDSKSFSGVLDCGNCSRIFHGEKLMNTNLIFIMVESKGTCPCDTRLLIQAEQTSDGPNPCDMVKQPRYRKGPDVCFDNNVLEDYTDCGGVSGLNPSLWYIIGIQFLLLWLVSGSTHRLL
T1 sequence (P54284 whole entry, further chain): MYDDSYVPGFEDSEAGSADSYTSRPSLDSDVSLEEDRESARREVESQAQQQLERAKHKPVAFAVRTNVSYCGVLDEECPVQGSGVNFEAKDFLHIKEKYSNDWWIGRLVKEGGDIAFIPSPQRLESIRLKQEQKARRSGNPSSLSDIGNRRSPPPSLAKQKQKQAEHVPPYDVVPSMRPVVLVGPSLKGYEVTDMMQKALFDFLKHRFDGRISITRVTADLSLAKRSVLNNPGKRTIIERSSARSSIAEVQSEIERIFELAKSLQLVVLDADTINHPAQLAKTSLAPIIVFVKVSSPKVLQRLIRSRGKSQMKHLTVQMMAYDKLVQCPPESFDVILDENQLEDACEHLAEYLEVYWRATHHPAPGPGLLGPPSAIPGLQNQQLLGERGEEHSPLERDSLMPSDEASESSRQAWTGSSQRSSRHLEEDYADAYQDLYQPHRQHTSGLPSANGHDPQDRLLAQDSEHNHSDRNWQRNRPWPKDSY

In the case of `CN(CC(C)(C)C)C(=O)c1c(-c2ccc(Cl)cc2)cc(C(F)(F)F)n1Cc1nccn1C` [Example 025, 3-(4-Chlorophenyl)-N-(2,2-dimethyl-propyl)-N-methyl-1-[(1-methyl-1H-imidazole-2-yl)-methyl]-5-(trifluoromethyl)-1H-pyrrole-2-carboxylic acid amide], the inhibition at 3 µM lay in the range of 75 to 95%. Take `Cc1cc(Cn2c(C(=O)N(C)C(C)C)c(-c3ccc(Cl)cc3)c(C)c2C(F)(F)F)on1` [Example 067, 3-(4-Chlorophenyl)-N-isopropyl-N,4-dimethyl-1-[(3-methyl-isoxazol-5-yl)-methyl]-5-(trifluoromethyl)-1H-pyrrole-2-carboxylic acid amide]: the inhibition at 3 µM is greater than 95%.

For the compound `CN(CC(C)(C)C)C(=O)c1c(-c2ccc(Cl)cc2)cc(C(F)(F)F)n1Cc1ncn(C)n1` [Example 013, 3-(4-Chlorophenyl)-N-(2,2-dimethyl-propyl)-N-methyl-1-[(1-methyl-1H-[1,2,4]triazol-3-yl)-methyl]-5-(trifluoromethyl)-1H-pyrrole-2-carboxylic acid amide], the inhibition at 3 µM lay within 75 to 95%. In the case of `Cc1c(-c2ccc(Cl)cc2)c(C(=O)N2CCOCC2)n(Cc2ccc(F)cn2)c1C(F)(F)F` [Example 044, [3-(4-Chlorophenyl)-1-[(5-fluoro-pyridin-2-yl)-methyl]-4-methyl-5-(trifluoromethyl)-1H-pyrrol-2-yl]-morpholin-4-yl-methanone] it was greater than 95%; in that of `Cc1c(-c2ccc(Cl)cc2)c(C(=O)N(C)C(C)C)n(Cc2nncs2)c1C(F)(F)F` [Example 069, 3-(4-Chlorophenyl)-N-isopropyl-N,4-dimethyl-1-([1,3,4]thiadiazol-2-yl-methyl)-5-(trifluoromethyl)-1H-pyrrole-2-carboxylic acid amide], greater than 95%; in that of `Cc1c(-c2ccc(Cl)cc2)c(C(=O)N2CCOCC2)n(Cc2cnn(C)c2)c1C(F)(F)F` [Example 023, [3-(4-Chlorophenyl)-4-methyl-1-[(1-methyl-1H-pyrazol-4-yl)-methyl]-5-(trifluoromethyl)-1H-pyrrol-2-yl]-morpholin-4-yl-methanone], greater than 95%.

Consider `Cc1c(-c2ccc(Cl)cc2)c(C(=O)N(C)CCS(C)(=O)=O)n(Cc2nccn2C)c1C(F)(F)F` [Example 002, 3-(4-Chlorophenyl)-N,4-dimethyl-1-[(1-methyl-1H-imidazole-2-yl)-methyl]-N-(2-methylsulfonyl-ethyl)-5-(trifluoromethyl)-1H-pyrrole-2-carboxylic acid amide], for which the inhibition at 3 µM lay within 40 to 75%. In the case of `Cc1c(-c2ccc(Cl)cc2)c(C(=O)N(C)CCS(C)(=O)=O)n(Cc2ncccn2)c1C(F)(F)F` [Example 039, 3-(4-Chlorophenyl)-N,4-dimethyl-N-(2-methylsulfonyl-ethyl)-1-(pyrimidin-2-yl-methyl)-5-(trifluoromethyl)-1H-pyrrole-2-carboxylic acid amide] it was 75 to 95%; in that of `CN(CC(C)(C)C)C(=O)c1c(-c2ccc(Cl)cc2)cc(C(F)(F)F)n1Cc1nncn1C` [Example 027, 3-(4-Chlorophenyl)-N-(2,2-dimethyl-propyl)-N-methyl-1-[(4-methyl-4H-[1,2,4]triazol-3-yl)-methyl]-5-(trifluoromethyl)-1H-pyrrole-2-carboxylic acid amide], 40 to 75%; in that of `Cc1c(-c2ccc(Cl)cc2)c(C(=O)N2CCS(=O)(=O)CC2)n(Cc2cn(C)cn2)c1C(F)(F)F` [Example 022, [3-(4-Chlorophenyl)-4-methyl-1-[(1-methyl-1H-imidazol-4-yl)-methyl]-5-(trifluoromethyl)-1H-pyrrol-2-yl]-(1,1-dioxo-[1,4]thiazinan-4-yl)-methanone], 40 to 75%. The value for `Cc1c(-c2ccc(Cl)cc2F)c(C(=O)N2CCOCC2)n(Cc2ncccn2)c1C(F)(F)F` [Example 062, [3-(4-Chloro-2-fluoro-phenyl)-4-methyl-1-(pyrimidin-2-yl-methyl)-5-(trifluoromethyl)-1H-pyrrol-2-yl]-morpholin-4-yl-methanone] was greater than 95%; that for `Cc1cnc(Cn2c(C(=O)N3CCOCC3)c(-c3ccc(Cl)cc3)c(C)c2C(F)(F)F)nc1` [Example 045, [3-(4-Chlorophenyl)-4-methyl-1-[(5-methyl-pyrimidin-2-yl)-methyl]-5-(trifluoromethyl)-1H-pyrrol-2-yl]-morpholin-4-yl-methanone] was greater than 95%. In the case of `Cc1c(-c2ccc(Cl)cc2)c(C(=O)N(C)CCS(C)(=O)=O)n(Cc2cncn2C)c1C(F)(F)F` [Example 003, 3-(4-Chlorophenyl)-N,4-dimethyl-1-[(3-methyl-3H-imidazole-4-yl)-methyl]-N-(2-methylsulfonyl-ethyl)-5-(trifluoromethyl)-1H-pyrrole-2-carboxylic acid amide] it was 40 to 75%; in that of `Cc1c(-c2ccc(Cl)cc2F)c(C(=O)N(C)C2CC2)n(Cc2ncccn2)c1C(F)(F)F` [Example 063, 3-(4-Chloro-2-fluoro-phenyl)-N-cyclopropyl-N,4-dimethyl-1-(pyrimidin-2-yl-methyl)-5-(trifluoromethyl)-1H-pyrrole-2-carboxylic acid amide], greater than 95%; in that of `Cc1c(-c2ccc(Cl)cc2)c(C(=O)N2CCOCC2)n(Cc2ncccn2)c1C(F)(F)F` [Example 047, [3-(4-Chlorophenyl)-4-methyl-1-(pyrimidin-2-yl-methyl)-5-(trifluoromethyl)-1H-pyrrol-2-yl]-morpholin-4-yl-methanone], greater than 95%. `Cc1nc(Cn2c(C(F)(F)F)cc(-c3ccc(Cl)cc3)c2C(=O)N(C)CC(C)(C)C)no1` [Example 012, 3-(4-Chlorophenyl)-N-(2,2-dimethyl-propyl)-N-methyl-1-[(5-methyl-[1,2,4]oxadiazol-3-yl)-methyl]-5-(trifluoromethyl)-1H-pyrrole-2-carboxylic acid amide]: the inhibition at 3 µM is greater than 95%.

Regarding `Cc1c(-c2ccc(Cl)cc2F)c(C(=O)N(C)C(C)C)n(Cc2ncccn2)c1C(F)(F)F` [Example 064, 3-(4-Chloro-2-fluoro-phenyl)-N-isopropyl-N,4-dimethyl-1-(pyrimidin-2-yl-methyl)-5-(trifluoromethyl)-1H-pyrrole-2-carboxylic acid amide], the inhibition at 3 µM is greater than 95%. In the case of `Cc1ncc(Cn2c(C(F)(F)F)cc(-c3ccc(Cl)cc3)c2C(=O)N(C)CC(C)(C)C)cn1` [Example 034, 3-(4-Chlorophenyl)-N-(2,2-dimethyl-propyl)-N-methyl-1-[(2-methyl-pyrimidin-5-yl)-methyl]-5-(trifluoromethyl)-1H-pyrrole-2-carboxylic acid amide] it was 75 to 95%; in that of `CN(CC(C)(C)C)C(=O)c1c(-c2ccc(Cl)cc2)cc(C(F)(F)F)n1Cc1cn(C)nn1` [Example 009, 3-(4-Chlorophenyl)-N-(2,2-dimethyl-propyl)-N-methyl-1-[(1-methyl-1H-[1,2,3]triazol-4-yl)-methyl]-5-(trifluoromethyl)-1H-pyrrole-2-carboxylic acid amide], 75 to 95%.

On to `Cc1c(-c2ccc(Cl)cc2)c(C(=O)N2CCOCC2)n(Cc2cncc(Cl)c2)c1C(F)(F)F` [Example 028, [3-(4-Chlorophenyl)-1-[(5-chloro-pyridin-3-yl)-methyl]-4-methyl-5-(trifluoromethyl)-1H-pyrrol-2-yl]-morpholin-4-yl-methanone], for which the inhibition at 3 µM is greater than 95%. Take `Cc1noc(Cn2c(C(F)(F)F)cc(-c3ccc(F)cc3)c2C(=O)N(C)C(C)C)n1` [Example 065, 3-(4-Fluorophenyl)-N-isopropyl-N-methyl-1-[(3-methyl-[1,2,4]oxadiazol-5-yl)-methyl]-5-(trifluoromethyl)-1H-pyrrole-2-carboxylic acid amide]: the inhibition at 3 µM is 75 to 95%. In the case of `Cc1c(-c2ccc(Cl)cc2)c(C(=O)N2CCOCC2)n(Cc2ccc[nH]c2=O)c1C(F)(F)F` [Example 053, 3-[[3-(4-Chlorophenyl)-4-methyl-2-(morpholine-4-carbonyl)-5-(trifluoromethyl)-1H-pyrrol-1-yl]-methyl]-1H-pyridin-2-one] it was 40 to 75%.
